Assay results from US20170045494A1, “SYSTEMS AND METHODS FOR IDENTIFYING COAGULOPATHIES” (T2 Biosystems, Inc., priority 2014, published 2017).

Legend:
Type in all cases: cell-based, human
[1] = test system: re-calcified citrated blood clotted with thrombin; test: T2MR monitoring of fibrinolysis of thrombin-clotted blood; settings: tPA added 30 minutes after 3 U/ml thrombin
Procedure: Blood clotting was initiated by addition of 2 μL of a 0.2 M CaCl2 solution and 2 μL of thrombin (Sigma-Aldrich, St. Louis, Mo., final concentration 0.1-3.0 U/ml) to 34 μL of blood in a 200 μL PCR tube (Eppendorf, Hauppauge, N.Y.). All components were pre-warmed for 1 min at 37° C. before mixing. Samples were mixed by three aspiration and dispersion cycles using a pipette, then put into the T2MR reader for measurement. Typical run length was 30 min with a 10 s sampling rate. For some experiments, data collection time was extended to 1 hr.
To establish T2MR signatures for fibrinolysis, tissue plasminogen activator (tPA, Alteplase, Genentech, South San Francisco, Calif.) was added to samples clotted by thrombin. Blood clotting was initiated as described above, and the sample was incubated for […] to allow for complete clot contraction. Then, 0.5-1 μM tPA was added to clotted and contracted samples. Care was taken not to disturb clots, which were usually attached to the tube wall. The pipette tip was carefully placed into the visible serum layer on the tube side opposite to the contracted clot, and 3 μL of tPA solution was added with a single dispensing of the pipettor. The tPA solutions were made from a stock solution prepared according to manufacturer instructions using 0.15 M sodium chloride, pH 7.4.
We measured the dependencies of the T2MR signals during clotting of re-calcified citrated blood samples from healthy donors initiated by adding 3 U/ml thrombin. Thrombin activates platelets and cleaves fibrinogen to form a three-dimensional fibrin network stabilized by factor XIIIa. Addition of thrombin led to rapid formation of a gelatinous meshwork that filled the sample volume accompanied by a small, rapid decrease in the T2MR signal over tens of seconds due to the sample transitioning from a liquid to gel state. […]
We then assessed the sensitivity of the T2MR platform to fibrinolysis by adding tissue-type plasminogen activator (tPA) to the clotted samples 30 minutes after thrombin.

[2] = test system: citrated blood; test: T2MR clot strength (ΔT2) after calcium and kaolin activation; settings: ex vivo addition at 4 or 8 μg/ml; 13 minutes after activation; samples from 3 healthy donors
Procedure: (§1) A 0.5 mg/ml solution of abciximab was prepared by diluting the stock 10 mg/5 ml solution by […] in saline. The abciximab-treated blood samples were incubated for at least 5 min prior to clotting. Clotting was initiated by adding 2 μL 0.2 M CaCl2 and 2 μL TEG kaolin to 34 μL of abciximab-treated blood sample. To compare the T2MR signal to TEG MA, a ΔT2 parameter was calculated by taking the difference in T2 between the upper and middle peaks at a time point 13 min after adding calcium and kaolin. The TEG MA values were measured on the same samples following manufacturer instructions.
(§2) For comparison between T2MR and TEG, calcium kaolin activation of citrated blood was used and normal donor samples were treated with various amounts of abciximab, an inhibitor of the platelet glycoprotein allbβ3 receptor that binds fibrin and is essential for clot contraction.

[3] = test system: citrated blood; test: Thromboelastography maximum amplitude (TEG MA) after calcium and kaolin activation; settings: ex vivo addition at 4 or 8 μg/ml; samples from 3 healthy donors
Procedure: as §1, §2

| Molecule | T2 value of the middle peak after tPA addition [1] | T2 value of the third peak after tPA addition (persisted) [1] [ms] | T2 value of the upper peak after tPA addition [1] | ΔT2 (difference between upper and middle T2 values in the T2MR signature) [2] [ms] | TEG MA [3] |
| --- | --- | --- | --- | --- | --- |
| Alteplase [tPA] | decreased from 250 to 175 | ~100 | decreased rapidly | – | – |
| abciximab (antibody, chains of the INN, looked up, V domains shown, Fab) VH: EVQLQQSGTVLARPGASVKMSCEASGYTFTNYWMHWVKQRPGQGLEWIGAIYPGNSDTSYIQKFKGKAKLTAVTSTTSVYMELSSLTNEDSAVYYCTLYDGYYVFAYWGQGTLVTVSA VL: EIVLTQSPVTLSVTPGDSVSLSCRASRDISNNLHWFQQTSHESPRLLIKYASQSMSGIPSRFSGSGSGTDFTLSINSVETEDFGMYFCQQTNSWPYTFGGGTKLEIK | – | – | – | < 100 | less than 40 |
